In patent publication US20170217946A1, “AMINO-SUBSTITUTED ISOXAZOLES” (Bayer Pharma Aktiengesellschaft, priority 2014, published 2017):

These compounds were tested on spindle assembly checkpoint (phosphorylated histone H3 on serine 10) in HeLa cells (assay: SAC-Formation - Nocodazole-Induced Assay). Details: Homo sapiens, nocodazole 0.1 μg/ml, 24 h incubation.
Type: cell-based
Source text: The spindle assembly checkpoint assures the proper segregation of chromosomes during mitosis. Upon entry into mitosis, chromosomes begin to condensate which is accompanied by the phosphorylation of histone H3 on serine 10. Dephosphorylation of histone H3 on serine 10 begins in anaphase and ends at early telophase. Accordingly, phosphorylation of histone H3 on serine 10 can be utilized as a marker of cells in mitosis. Nocodazole is a microtubule destabilizing substance. Paclitaxel is a microtubule stabilizing compound. Thus, nocodazole as well as paclitaxel interfere with microtubule dynamics and mobilize the spindle assembly checkpoint. […] The mitotic breakthrough can be detected by the decrease of cells with phosphorylation of histone H3 on serine 10. This decline is used as a marker to determine the capability of compounds of the present invention to induce a mitotic breakthrough. The typical morphological alteration of nuclei with a prematurely completed mitosis after SAC-inhibition can be monitored via image analysis routines supporting those findings.
The nocodazole and paclitaxel variations were used to focus on compounds that are capable of inhibiting a SAC induced by both microtubule destabilization as well as microtubule stabilization. […]
Cultivated cells of the human cervical tumor cell line HeLa (ATCC CCL-2) were plated at a density of 1000 cells/well in a 1536-well microtiter plate in 2 μl PAA Ham's F12 Medium supplemented with 1% (v/v) glutamine, 1% (v/v) penicillin, 1% (v/v) streptomycin and 10% (v/v) fetal calf serum. […] Images were acquired with a PERKIN ELMER OPERA™ High-Content Analysis reader. Images were analyzed with image analysis software MetaXpress™ from Molecular devices utilizing the Mitotic Index application module. In this assay both labels HOECHST 33342 and phosphorylated Histone H3 on serine 10 were measured. […] The raw assay data were further analyzed by four-parametric hill equation using Genedata's Assay Analyzer and Condoseo software.
`Cc1noc(Nc2cnc(C(F)(F)F)cn2)c1C(=O)Nc1ccc(OC2CCN(CCC(F)(F)F)CC2)nc1` [Example 1a, 3-Methyl-5-{[5-(trifluoromethyl)pyrazin-2-yl]amino}-N-(6-{[1-(3,3,3-trifluoropropyl)-piperidin-4-yl]oxy}pyridin-3-yl)-1,2-oxazole-4-carboxamide] was tested, and the IC50 was 0.43 µM.
`Cc1noc(Nc2cnc(C(=O)NC3CCN(CC(F)F)CC3)cn2)c1C(=O)Nc1ccc(F)c(F)c1` [Example 1b, N-[1-(2,2-Difluoroethyl)piperidin-4-yl]-5-({4-[(3,4-difluorophenyl)carbamoyl]-3-methyl-1,2-oxazol-5-yl}amino)pyrazine-2-carboxamide] was tested, and the IC50 was 0.62 µM.
Compound `Cc1noc(Nc2cnc(C(F)(F)F)cn2)c1C(=O)Nc1ccc(F)c(F)c1` [Example 1c, N-(3,4-Difluorophenyl)-3-methyl-5-{[5-(trifluoromethyl)pyrazin-2-yl]amino}-1,2-oxazole-4-carboxamide] has an IC50 of 0.17 µM.
